From patent US6841661B2, “Glycopeptide antibacterial compounds, compositions containing same and methods of using same” (Princeton Univerisity, priority 1999, dated 2005)

Experiments:
[1] = test system: E. faecalis CL 4877 (VanB); assay: microbe, parasite or virus in culture; assay type: cell-based; design: CL4877 (in vitro testing): unit not given here; conditions: Tables 7 and 8; unit not given
From the text: (§1) National Committee for Clinical Laboratory Standards (NCCLS) guidelines [Methods for Dilution Antimicrobial Susceptibility Tests for Bacteria that Grow Aerobically-Fourth Edition; Approved Standard (NCCLS Document M7-A4, January 1997)] are used to establish the assay, although variations are made to optimize the published method according to the specific needs of the present investigation.
(§2) The test panel currently includes eight enterococci and 13 staphylococci, which are selected based upon their antibiotic susceptibility profiles. The methicillin-sensitive Staphylococcus aureus (MSSA) strain MB2985 (Smith isolate) is used to assesses the potential for serum protein binding of the compounds. The paired Gram-negative strains ASP #49 (envA-) and ASP #50 (envA+) (M. Salvatore/N. Lee) are included to judge membrane effects. Table 3 presents a detailed description of the strains included in the panel, including some of the sources of the strains of bacteria.
(§3) The glycopeptide antibiotic teicoplanin is included whenever possible.
(§4) TSB, containing 10% HS* for vancomycin intermediate S. aurcus/methicillin-resistant S. aureus (VISA/MRSA) strains, is inoculated from an appropriate source (frozen broth or agar slant) and grown approximately 17 hr at 35° C. with shaking at 220 rpm. Cultures are grown in tubes with a volume of 5 ml for enterococci and 2 ml for all other strains.
(§5) Four milliliter (4 ml) overnight culture is added to 36 ml physiological saline to obtain tenfold dilutions (enterococci). Overnight culture (0.4 ml) is added to 39.6 ml saline to obtain 100-fold dilutions (all strains except enterococci). Diluted cultures are maintained on ice until time of inoculation of test plates.
(§6) The number of CFU/mL is determined on BHI agar plates, although this is not done routinely because titers of overnight cultures are relatively constant. The test media include: • BHI for enterococci and VISA/MRSA; • MH II (i.e., cation-adjusted Mueller-Hinton broth) for MRS, MSS and E. coli.; • MH II+HSA for MSSA is prepared as follows: • a. 2×MHII+86mg/ml HSA • b. Dissolve 4.3 g HSA in 50 ml autoclaved 2x MH II. • c. pH to 7.0 by adding 2M MOPS, sodium. • d. Filter sterilize using 0.22 μm Coming cellulose acetate filter, used because of reported low protein binding. • e. 1×MH II+43 mg/ml HSA • f. Dilute the 2×medium twofold and filter as above. 5.8.6. Preparation of Test Plates
(§7) Using a Denley liquid handling system (or similar automatic device), 100 μ1×medium is added to each well in columns 2-12 of a 96-well microtiter dish. Using a multichannel pipettor, 100 μl 2×medium is added to each well in column 1. Plates may be filled on the day prior to assay, wrapped in plastic bags and refrigerated.
(§8) Vancomycin, Schering 29482, and teicoplanin are prepared on a weight per volume basis using 10 mM 3-(N-morpholino)propane-sulfonic acid (MOPS) buffer pH 7. Test compounds are received in solution in appropriate solvent (typically as 1 mg/ml in DMSO) or are dissolved in appropriate solvent prior to further dilution in 10 mM MOPS buffer, ph7. Consistent with NCCLS guidelines, antibiotics are handled aseptically but are not otherwise sterilized.
(§9) 100 μl appropriately diluted antibiotic solution is added to the first well of the designated row of the 96-well microtiter dish and serially diluted by twofold across the row using the Denley liquid handling system. With the aid of a Dynatech NEC 2000 inoculator, each well of the microtiter dish is inoculated with 1.5 μl diluted overnight culture, yielding approximately 1-5×10^6 CFU/ml for enterococci and approximately 3-7×10^5 CFU/ml for all other strains. Dishes are placed in stacks of no more than five, wrapped in plastic bags and incubated at 35° C. • Indication of result(s) type (% INH, IC50, Zone size, etc.) • MIC=minimum inhibitory concentration ps 5.8.9. Interpretation of the Results on the Basis of Activity […]

[2] = test system: CL 4931, CL 5053, CL 5242 and CL 4877; assay type: cell-based, E. faecium, E. faecalis; design: unit not given here; conditions: mean of CL4931, CL5053, CL5242, CL4877; unit not given
From the text: as §1, §2, §3, §4, §5, §6, §7, §8, §9

[3] = test system: E. faecium CL 5242 (VanA); assay: microbe, parasite or virus in culture; assay type: cell-based; design: CL5242 (in vitro testing): unit not given here; conditions: Tables 7 and 8; unit not given
From the text: as §1, §2, §3, §4, §5, §6, §7, §8, §9

[4] = test system: E. faecium CL 5053 (VanA); assay: microbe, parasite or virus in culture; assay type: cell-based; design: CL5053 (in vitro testing): unit not given here; conditions: Tables 7 and 8; unit not given
From the text: as §1, §2, §3, §4, §5, §6, §7, §8, §9

[5] = test system: E. faecium CL 4931 (VanA); assay: microbe, parasite or virus in culture; assay type: cell-based; design: CL4931 (in vitro testing): unit not given here; conditions: Tables 7 and 8; unit not given
From the text: as §1, §2, §3, §4, §5, §6, §7, §8, §9

| SMILES | CL4877 (in vitro testing) [1] | Mean [2] | CL5242 (in vitro testing) [3] | CL5053 (in vitro testing) [4] | CL4931 (in vitro testing) [5] |
| --- | --- | --- | --- | --- | --- |
| CNC(CC(C)C)C(=O)NC1C(=O)NC(CC(N)=O)C(=O)NC2C(=O)NC3C(=O)NC(C(=O)NC(C(=O)O)c4cc(O)cc(O)c4-c4cc3ccc4O)C(O)c3ccc(c(Cl)c3)Oc3cc2cc(c3OC2OC(CNCCCN)C(O)C(O)C2OC2CC(C)(NCc3ccc(OCc4ccc(Cl)c(Cl)c4)cc3)C(O)C(C)O2)Oc2ccc(cc2Cl)C1O (centres unmarked) [Compound 161] | 16 | 13.0 | 4 | 16 | 16 |
| CNC(CC(C)C)C(=O)NC1C(=O)NC(CC(N)=O)C(=O)NC2C(=O)NC3C(=O)NC(C(=O)NC(C(=O)O)c4cc(O)cc(O)c4-c4cc3ccc4O)C(O)c3ccc(c(Cl)c3)Oc3cc2cc(c3OC2OC(CN3CCCC3)C(O)C(O)C2OC2CC(C)(NCc3ccc(OCc4ccc(Cl)c(Cl)c4)cc3)C(O)C(C)O2)Oc2ccc(cc2Cl)C1O (centres unmarked) [Compound 163] | 2 | 13.5 | 4 | 32 | 16 |
| CNC(CC(C)C)C(=O)NC1C(=O)NC(CC(N)=O)C(=O)NC2C(=O)NC3C(=O)NC(C(=O)NC(C(=O)O)c4cc(O)cc(O)c4-c4cc3ccc4O)C(O)c3ccc(c(Cl)c3)Oc3cc2cc(c3OC2OC(CNC3CC3)C(O)C(O)C2OC2CC(C)(NCc3ccc(OCc4ccc(Cl)c(Cl)c4)cc3)C(O)C(C)O2)Oc2ccc(cc2Cl)C1O (centres unmarked) [Compound 165] | 16 | 14.0 | 8 | 16 | 16 |
| CNC(CC(C)C)C(=O)NC1C(=O)NC(CC(N)=O)C(=O)NC2C(=O)NC3C(=O)NC(C(=O)NC(C(=O)O)c4cc(O)cc(O)c4-c4cc3ccc4O)C(O)c3ccc(c(Cl)c3)Oc3cc2cc(c3OC2OC(CN3CCC(N(C)C)C3)C(O)C(O)C2OC2CC(C)(NCc3ccc(OCc4ccc(Cl)c(Cl)c4)cc3)C(O)C(C)O2)Oc2ccc(cc2Cl)C1O (centres unmarked) [Compound 166] | 32 | 14.5 | 2 | 16 | 8 |
| CNC(CC(C)C)C(=O)NC1C(=O)NC(CC(N)=O)C(=O)NC2C(=O)NC3C(=O)NC(C(=O)NC(C(=O)O)c4cc(O)cc(O)c4-c4cc3ccc4O)C(O)c3ccc(c(Cl)c3)Oc3cc2cc(c3OC2OC(CN3CCNCC3)C(O)C(O)C2OC2CC(C)(NCc3ccc(OCc4ccc(Cl)c(Cl)c4)cc3)C(O)C(C)O2)Oc2ccc(cc2Cl)C1O (centres unmarked) [Compound 167] | 32 | 15.0 | 4 | 16 | 8 |
| CNC(CC(C)C)C(=O)NC1C(=O)NC(CC(N)=O)C(=O)NC2C(=O)NC3C(=O)NC(C(=O)NC(C(=O)O)c4cc(O)cc(O)c4-c4cc3ccc4O)C(O)c3ccc(c(Cl)c3)Oc3cc2cc(c3OC2OC(CN3CCCCC3)C(O)C(O)C2OC2CC(C)(NCc3ccc(OCc4ccc(Cl)c(Cl)c4)cc3)C(O)C(C)O2)Oc2ccc(cc2Cl)C1O (centres unmarked) [Compound 168] | 1 | 18.3 | 8 | 16 | 32 |
| CNC(CC(C)C)C(=O)NC1C(=O)NC(CC(N)=O)C(=O)NC2C(=O)NC3C(=O)NC(C(=O)NC(C(=O)O)c4cc(O)cc(O)c4-c4cc3ccc4O)C(O)c3ccc(c(Cl)c3)Oc3cc2cc(c3OC2OC(CN3CCOCC3)C(O)C(O)C2OC2CC(C)(NCc3ccc(OCc4ccc(Cl)c(Cl)c4)cc3)C(O)C(C)O2)Oc2ccc(cc2Cl)C1O (centres unmarked) [Compound 169] | 1 | 18.3 | 8 | 32 | 32 |
| CNC(CC(C)C)C(=O)NC1C(=O)NC(CC(N)=O)C(=O)NC2C(=O)NC3C(=O)NC(C(=O)NC(C(=O)O)c4cc(O)cc(O)c4-c4cc3ccc4O)C(O)c3ccc(c(Cl)c3)Oc3cc2cc(c3OC2OC(CN3CCC(N(C)C)CC3)C(O)C(O)C2OC2CC(C)(NCc3ccc(OCc4ccc(Cl)c(Cl)c4)cc3)C(O)C(C)O2)Oc2ccc(cc2Cl)C1O (centres unmarked) [Compound 170] | 32 | 22.0 | 8 | 32 | 16 |
| CNC(CC(C)C)C(=O)NC1C(=O)NC(CC(N)=O)C(=O)NC2C(=O)NC3C(=O)NC(C(=O)NC(C(=O)O)c4cc(O)cc(O)c4-c4cc3ccc4O)C(O)c3ccc(c(Cl)c3)Oc3cc2cc(c3OC2OC(CN)C(O)C(O)C2OC2CC(C)(NCc3ccc(OCc4ccc(Cl)cc4)cc3)C(O)C(C)O2)Oc2ccc(cc2Cl)C1O (centres unmarked) [Compound 171] | 16 | 7.25 | 1 | 8 | 4 |
| CNC(CC(C)C)C(=O)NC1C(=O)NC(CC(N)=O)C(=O)NC2C(=O)NC3C(=O)NC(C(=O)NC(C(=O)O)c4cc(O)cc(O)c4-c4cc3ccc4O)C(O)c3ccc(c(Cl)c3)Oc3cc2cc(c3OC2OC(CN)C(O)C(O)C2OC2CC(C)(NCc3ccc(OCc4cccc(Cl)c4)cc3)C(O)C(C)O2)Oc2ccc(cc2Cl)C1O (centres unmarked) [Compound 172] | >16 | 12.5 | 2 | 16 | 16 |
| CNC(CC(C)C)C(=O)NC1C(=O)NC(CC(N)=O)C(=O)NC2C(=O)NC3C(=O)NC(C(=O)NC(C(=O)O)c4cc(O)cc(O)c4-c4cc3ccc4O)C(O)c3ccc(c(Cl)c3)Oc3cc2cc(c3OC2OC(CN)C(O)C(O)C2OC2CC(C)(NCc3ccc(OCc4ccc(Cl)cc4Cl)cc3)C(O)C(C)O2)Oc2ccc(cc2Cl)C1O (centres unmarked) [Compound 173] | 2 | 4.75 | 1 | 8 | 8 |
| CNC(CC(C)C)C(=O)NC1C(=O)NC(CC(N)=O)C(=O)NC2C(=O)NC3C(=O)NC(C(=O)NC(C(=O)O)c4cc(O)cc(O)c4-c4cc3ccc4O)C(O)c3ccc(c(Cl)c3)Oc3cc2cc(c3OC2OC(CN)C(O)C(O)C2OC2CC(C)(NCc3ccc(OCc4cc(Cl)ccc4Cl)cc3)C(O)C(C)O2)Oc2ccc(cc2Cl)C1O (centres unmarked) [Compound 174] | 16 | 14 | 8 | 16 | 16 |
| CNC(CC(C)C)C(=O)NC1C(=O)NC(CC(N)=O)C(=O)NC2C(=O)NC3C(=O)NC(C(=O)NC(C(=O)O)c4cc(O)cc(O)c4-c4cc3ccc4O)C(O)c3ccc(c(Cl)c3)Oc3cc2cc(c3OC2OC(CN)C(O)C(O)C2OC2CC(C)(NCc3ccc(OCc4cc(Cl)cc(Cl)c4)cc3)C(O)C(C)O2)Oc2ccc(cc2Cl)C1O (centres unmarked) [Compound 175] | 2 | 3 | 2 | 4 | 4 |
